Assay results reported in patent EP0111455A2, “Unsaturated lactones” (CIBA-GEIGY AG, priority 1982, dated 1984).

Legend:
[1] = tested on: isolierten, elektrisch gereizten, linken Vorhöfen des Meerschweinchens; assay: positive inotropic effect on isolated, electrically stimulated left atria (method after J.V. Levy); assay type: cell-based, Meerschweinchen; conditions: for IC25 / IC50: negative inotropic effect, same set-up; for IC25: read-out: Konzentration für Reduktion der Kontraktionskraft um 25 %; for IC50: read-out: Konzentration für Reduktion der Kontraktionskraft um 50 %; for Kontraktionskraft (Art der Wirkung): qualitative, exclusively a decrease of contraction force; for Emax: Cavia porcellus, extent of positive inotropic effect in % of the maximal increase of contraction force by Isoproterenol, read-out: Ausmass der Wirkung (% von ISOmax); for EC50: concentration for half of the maximal positive inotropic effect, left atria, guinea pig, read-out: Wirksamkeit EC50
Description: (§1) Die Steigerung der myocardialen Kontraktilität, d.h. die positiv inotrope Wirkung, kann z.B. anhand von Versuchsanordnungen nachgewiesen werden, die sich auf die von J.V. Levy, Isolated Atrial Preparations in Methods in Pharmacology, Bd. 1, S. 77 bis 104 (Ed. A. Schwartz; Appleton-Century-Crofts, New York; 1971),beschriebene Methodik, stützen. So steigern die Verbindungen der Formel I und Salze von solchen Verbindungen mit salzbildenden Eigenschaften in Konzentrationen ab etwa 0,1 umol/L an isolierten, elektrisch gereizten, linken Vorhöfen des Meerschweinchens (in vitro-Versuchsanordnung) die maximale Kontraktionskraft (peak developed tension). Das Ausmass (efficacy) dieser positiv inotropen Wirkung ist dabei unterschiedlich, kann jedoch bis zu 90 % der mit Isoproterenol maximal erreichbaren Wirkung betragen. Ferner steigern sie in Konzentrationen ab etwa 0,3 µ mol/L an isolierten, spontan schlagenden, rechten Vorhöfen des Meerschweinchens die Kontraktionsfrequenz. Das Ausmass (efficacy) dieser positiv chronotropen Wirkung ist dabei unterschiedlich, kann jedoch bis zu 60% der mit Isoproterenol maximal erreichbaren Wirkung betragen.
In der folgenden Tabelle werden die Konzentrationen (in µmol/L) für Verbindungen der Formel I angegeben, die notwendig sind, um die Hälfte der maximalen positiv inotropen Wirkung zu erzielen (EC50). Das Ausmass der Wirkung wird in % der maximalen, mittels Isoproterenol in dieser Versuchsanordnung bewirkten Steigerung der Kontraktionskraft (ISOmax.) angegeben; diejenige von Isoproterenol beträgt +2.1 +0.1 g (x ± SK; N=30).
Im Gegensatz dazu weist z.B. der obgenannte 2-Cyan-6-methyl-4-(3-nitrophenyl)-1,4-dihydro-pyridin-3,5-dicarbonsäure-5-isopropylester-3-methylester in der gleichen Versuchsanordnung eine Reduktion der Kontraktionskraft um 25 % bei einer Konzentration von 1 µmol/L und um 50 % bei einer solchen von 8 µmol/L auf, während Nifedipin bei einer Konzentration von 0.1 µmol/L eine 25 %ige und von 0.4 µmo 1/1 eine 50 Zige Reduktion der myocardialen Kontraktionskraft bewirkt.

narkotisierten Katze = assay: arterial blood pressure in the anaesthetised cat, intravenous; assay type: in vivo; conditions: qualitative, i.v., doses from about 0,001 mg/kg
Method: An der narkotisierten Katze führen die Verbindungen der Formel I und Salze von solchen Verbindungen mit salzbildenden Eigenschaften bei intravenöser Verabreichung in Dosen ab etwa 0,001 mg/kg zu einer Steigerung des arteriellen Blutdrucks.

[2] = tested on: isolierten, spontan schlagenden, rechten Vorhöfen des Meerschweinchens; assay: positive chronotropic effect on isolated, spontaneously beating right atria; assay type: cell-based, Meerschweinchen; conditions: qualitative; exclusively a decrease of contraction frequency
Description: as §1

männliche Ratten = assay: central nervous system stimulation (behaviour) in male rats, i.p.; assay type: in vivo; conditions: 50 mg/kg i.p. as solution in Polyäthylenglycol 400; during 1 hour, especially 30 minutes after administration
Method: Die Verbindungen der Formel I sowie Salze von solchen Verbindungen mit salzbildenden Eigenschaften wirken ferner aktivierend, insbesondere stimulierend, auf das Zentralnervensystem. So bewirkt z.B. die i.p.-Verabreichung von 50 mg/kg 4-(2-Difluormethoxyphenyl)-2-methyl-5-oxo-1,4,5,7-tetrahydro-fuo[3,4-b]pyridin-3-carbonsäureäthylester als Lösung in Polyäthylenglycol 400 an männliche Ratten während 1 Stunde, insbesondere während 30 Minuten nach Verabreichung Schnuppern, Kau- und Putzaktivität, sporadische. Schüttelbewegungen von Kopf und Körper sowie Vorderpfoten-Klonus. Aufgrund dieser Eigenschaften erscheinen die Verbindungen der Formel I sowie Salze von solchen Verbindungen mit salzbildenden Eigenschaften für die Behandlung retardierter Depressionen verschiedenen Schweregrades, von psychischen, von fehlendem Antrieb und Initiative begleiteten Störungen sowie von hypokinetischen, geriatrischen Patienten geeignet.

narkotisierten Hund = assay: haemodynamics and blood glucose in the anaesthetised dog, intravenous; assay type: in vivo; conditions: qualitative
Method: Im narkotisierten Hund (in vivo-Versuchsanordnung) bewirken die Verbindungen der Formel I und Salze von solchen Verbindungen mit salzbildenen Eigenschaften bei intravenöser Verabreichung in Dosen ab etwa 1 mg/kg ebenfalls eine Steigerung der myokardialen Kontraktilität (Zunahme der maximalen Druckanstiegsgeschwindigkeit dP/dt in der max Aorta) um etwa 40 bis etwa 60 %, sowie eine Steigerung des arteriellen Blutdrucks um etwa 10 bis etwa 30 %, ferner eine Abnahme der GlucoseKonzentration im Blut um etwa 10 bis etwa 30 %.

SMILES	EC50 [1] [µM]	Emax [1] [%]	also measured
CC(C)NCC(O)c1ccc(O)c(O)c1 (centres unmarked) [Isoproterenol, reference compound]			maximale Steigerung der Kontraktionskraft (ISOmax.) ([1]; x ± SK, N=30): 2.1 ± 0.1 g
COC(=O)C1=C(C#N)NC(C)=C(C(=O)OC(C)C)C1c1cccc([N+](=O)[O-])c1 (centres unmarked) [2-Cyan-6-methyl-4-(3-nitrophenyl)-1,4-dihydro-pyridin-3,5-dicarbonsäure-5-isopropylester-3-methylester, reference compound]			IC25 [1]: 1 µM; IC50 [1]: 8 µM; Kontraktionskraft (Art der Wirkung) [1]: negativ inotrope Wirkung; arterieller Blutdruck (Art der Wirkung) (narkotisierten Katze): Senkung des arteriellen Blutdrucks; Kontraktionsfrequenz (Art der Wirkung) [2]: negativ chronotrope Wirkung
CCOC(=O)C1=C(C)NC2=C(C(=O)OC2)C1c1ccccc1SC(F)F (centres unmarked) [-COOC2H5; 2-Difluormethyl-mercaptophenyl, 4-(2-Difluormethylmercaptophenyl)-2-methyl-5-oxo-1,4,5,7-tetrahydro-furo[3,4-b]pyridin-3-carbonsäure-äthylester]	1	80	
COCCOC(=O)C1=C(C)NC2=C(C(=O)OC2)C1c1ccccc1OC(F)F (centres unmarked) [-COOC2H4OCH3; 2-Difluormethoxy-phenyl, 4-(2-Difluormethoxyphenyl)-2-methyl-5-oxo-1,4,5,7-tetrahydro-furo[3,4-b]pyridin-3-carbonsäure-(2-methoxyäthyl)-ester]	5.3	90	
CCOC(=O)C1=C(C)NC2=C(C(=O)OC2)C1c1cccc(OC(F)F)c1OC(F)F (centres unmarked) [-COOC2H5; 2,3-Di-difluor-methoxyphenyl, 4-[2,3 Di-(difluormethoxy)-phenyl]-2-methyl-5-oxo-1,4,5,7-tetrahydro-furo[3,4-b]pyridin-3-carbonsäure-äthylester]		14	
CCOC(=O)C1=C(C)NC2=C(C(=O)OC2)C1c1ccc(OC(F)F)cc1 (centres unmarked) [-COOC2H5; 4-Difluormethoxy-phenyl, 4-(4-Difluormethoxy-phenyl)-2-methyl-5-oxo-1,4,5,7-tetrahydro-furo[3,4-b]pyridin-3-carbonsäureäthylester]		10	
CCOC(=O)C1=C(C)NC2=C(C(=O)OC2)C1c1ccccc1OCCOC (centres unmarked) [-COOC2H5; 2-(2-Methoxyäthoxy)-phenyl, 2 Methyl-4-[2-(2-methoxyäthoxy)-phenyl]-5-oxo-1,4,5,7-tetrahydro-furo[3,4-b]pyridin-3-carbonsäure-äthylester]	3.8	80	
COC(=O)C1=C(C)NC(C)=C(C(=O)OC)C1c1ccccc1[N+](=O)[O-] [Nifedipin, 2,6-Dimethyl-4-(2-nitrophenyl)-1,4-dihydro-pyridin-3,5-dicarbonsäure-dimethylester, reference compound]			IC25 [1]: 0.1 µM; IC50 [1]: 0.4 µM; Kontraktionskraft (Art der Wirkung) [1]: negativ inotrope Wirkung; arterieller Blutdruck (Art der Wirkung) (narkotisierten Katze): Senkung des arteriellen Blutdrucks; Blutdruck (Art der Wirkung) (narkotisierten Hund): Senkung des Blutdrucks; Kontraktionsfrequenz (Art der Wirkung) [2]: negativ chronotrope Wirkung

Second part, led by results:

EC50 [1] [µM]	SMILES	Emax [1] [%]	also measured
0.7	CCOC(=O)C1=C(C)NC2=C(C(=O)OC2)C1c1ccccc1OC(F)F (centres unmarked) [-COOC2H5; 2-Difluormethoxy-phenyl, 4-(2-Difluormethoxy-phenyl)-2-methyl-5-oxo-1,4-5,7-tetrahydro-furo[3,4-b]pyridin-3-carbonsäureäthylester]	65	Wirkung auf das Zentralnervensystem (Verhalten) (männliche Ratten): Schnuppern, Kau- und Putzaktivität, sporadische. Schüttelbewegungen von Kopf und Körper sowie Vorderpfoten-Klonus
3.7	COC(=O)C1=C(C)NC2=C(C(=O)OC2)C1c1ccccc1OC(F)F (centres unmarked) [-COOCH3; 2-Difluormethoxy-phenyl, 4-(2-Difluormethoxyphenyl)-2-methyl-5-oxo-l,4,5,7-tetrahydro-furo[3,4-b]pyridin-3-carbonsäure-methylester]	70	
0.38	CCOC(=O)C1=C(C)NC2=C(C(=O)OC2)C1c1ccccc1OCCSC (centres unmarked) [2-Methyl-4-[2-(2-methylthioäthoxy)-phenyl]-5-oxo-_ 1,4,5,7-tetrahydro-fnro[3,4-b]pyridin-3-carbonsäure-äthylester]	75	
1	CCOC(=O)C1=C(C)NC2=C(C(=O)OC2)C1c1ccccc1OC(F)(F)C(F)Cl (centres unmarked) [4-[2-(2-Chlor-1,1,2-trifluor-äthoxy)-phenyl]-2-methyl-5-oxo-1,4,5,7-tetrahydro-furo-[3,4-b]pyridin-3-carbonsäureäthylester]	75	
63	CC1=C(C#N)C(c2ccccc2OC(F)F)C2=C(COC2=O)N1 (centres unmarked) [-CN; 2-Difluormethoxy-phenyl, 4-(2-Difluormethoxy-phenyl)-2-methyl-5-oxo-1,4,5,7-tetrahydro-furo[3,4-b]pyridin-3-carbonitril]	68	
1.2	CC1=C(C(=O)OC(C)C)C(c2ccccc2OC(F)F)C2=C(COC2=O)N1 (centres unmarked) [-COOCH(CH3)2; 2-Difluormethoxy-phenyl, 4-(2-Difluormethoxyphenyl)-2-methyl-5-oxo-1,4,5,7-tetra-hydro-furo[3,4-b]pyridin-3-carbonsäure-isopropylester]	70	
4.8	CCOC(=O)C1=C(C)NC2=C(C(=O)OC2)C1c1cccc(OC(F)F)c1 (centres unmarked) [-COOC2H5; 3-Difluormethoxy-phenyl, 4-(3-Difluormethoxyphenyl)-2-methyl-5-oxo-1,4,5,7-tetrahydro-furo [3,4-b]pyridin-3-carbonsäure-äthylester]	65	
